Test results: PMC9706563, “Development of Macrocyclic PRMT5–Adaptor Protein Interaction Inhibitors” (Journal of Medicinal Chemistry, 2022)
Numbered stars: 1 amine (or outer) side, 2 acyl side, 3 side chain; on linkers, the order of the positions; unused ones are H or OH. Bridge positions count the residues as written; N and C are the ends. Square brackets hold non-standard residues; d marks the D form. Peptide text beside a SMILES is read from it. * marks the point of attachment. FITC = O=C1OC2(c3ccc(O)cc3Oc3cc(O)ccc32)c2ccc(NC(=S)*)cc21; dNva(5-ylidene) = O=C([C@@H](CCC=[*:3])N[*:1])[*:2]; NMeF = CN[C@@H](Cc1ccccc1)C(=O)O; dAllylGly = C=CC[C@@H](N)C(=O)O; NMeD = CN[C@@H](CC(=O)O)C(=O)O; NMeA = CN[C@@H](C)C(=O)O

Target: T1, PRMT5-MEP50 (Homo sapiens, UniProt O14744)
T1 construct: The compounds were tested by means of FP with the full-length PRMT5-MEP50 complex; made in house
T1 sequence (O14744 whole entry): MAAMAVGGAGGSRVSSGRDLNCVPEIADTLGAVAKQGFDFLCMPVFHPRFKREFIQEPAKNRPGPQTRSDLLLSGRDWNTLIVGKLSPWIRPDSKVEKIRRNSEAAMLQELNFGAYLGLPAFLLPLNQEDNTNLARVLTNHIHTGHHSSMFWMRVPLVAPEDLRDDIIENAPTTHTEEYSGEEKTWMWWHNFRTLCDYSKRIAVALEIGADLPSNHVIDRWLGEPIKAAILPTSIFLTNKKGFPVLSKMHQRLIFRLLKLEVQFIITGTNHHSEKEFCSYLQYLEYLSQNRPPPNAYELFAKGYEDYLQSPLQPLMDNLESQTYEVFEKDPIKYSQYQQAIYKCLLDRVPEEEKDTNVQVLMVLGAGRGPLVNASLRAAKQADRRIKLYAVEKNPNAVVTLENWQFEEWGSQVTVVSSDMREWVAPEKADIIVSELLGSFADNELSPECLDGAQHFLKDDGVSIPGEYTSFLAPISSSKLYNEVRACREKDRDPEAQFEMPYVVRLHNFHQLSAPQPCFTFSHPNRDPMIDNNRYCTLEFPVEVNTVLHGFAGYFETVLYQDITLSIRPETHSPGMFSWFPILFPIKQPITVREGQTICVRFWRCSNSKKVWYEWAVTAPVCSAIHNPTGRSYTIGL
T1 sequence (Q9BQA1 whole entry partner): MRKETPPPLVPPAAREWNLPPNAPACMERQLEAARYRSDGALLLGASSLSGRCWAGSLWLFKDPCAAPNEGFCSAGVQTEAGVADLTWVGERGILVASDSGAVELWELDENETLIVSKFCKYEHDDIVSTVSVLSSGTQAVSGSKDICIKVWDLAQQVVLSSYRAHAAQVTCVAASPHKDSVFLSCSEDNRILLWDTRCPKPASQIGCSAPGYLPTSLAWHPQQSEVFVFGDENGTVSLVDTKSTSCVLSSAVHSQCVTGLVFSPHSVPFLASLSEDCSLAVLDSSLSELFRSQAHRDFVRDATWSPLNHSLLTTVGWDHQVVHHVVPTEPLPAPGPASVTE
Test: Direct binding fluorescence polarization (FP) assay of FITC-labeled peptides
Settings: FITC-labeled peptide 1 nM, PRMT5-MEP50 titrated, read-out: KD
Method: The assay was performed in a buffer of 50 mM 4-(2-hydroxyethyl)-1-piperazineethanesulfonic acid (HEPES), 250 mM NaCl, 1 mM tris(2-carboxyethyl)phosphine (TCEP), and 0.01% (v/v) Tween 20, pH 8.0, in black, 384-well plates with a total volume of 10 μL per well. […] The plates were incubated at room temperature for 1 to 2 h and analyzed on a plate reader using 485 nm excitation and 535 nm emission wavelength. The assay was performed in triplicate.

| SMILES | Kd [nM] |
| --- | --- |
| CC(=O)N[C@H](C(=O)N1CCC[C@H]1C(=O)NC1CCCCC[C@@H](C(=O)N[C@@H](CC(=O)O)C(=O)N[C@@H](C)C(=O)N[C@@H](CC(=O)O)C(=O)N[C@@H](CCCCNC(=S)Nc2ccc3c(c2)C(=O)OC32c3ccc(O)cc3Oc3cc(O)ccc32)C(N)=O)NC(=O)[C@H](Cc2ccccc2)NC(=O)[C@H](CCC(N)=O)NC1=O)C(C)C (stereo in doubt) [Compound 21] | 430 ± 96 |
| CC(=O)NC1CCCCC[C@@H](C(=O)N[C@@H](CC(=O)O)C(=O)N[C@@H](C)C(=O)N[C@@H](CC(C(=O)O)C(=O)O)C(=O)N[C@@H](CCCCNC(=S)Nc2ccc3c(c2)C(=O)OC32c3ccc(O)cc3Oc3cc(O)ccc32)C(N)=O)NC(=O)[C@H](Cc2ccc([N+](=O)[O-])cc2)NC(=O)[C@H](CCC(N)=O)NC1=O (stereo in doubt) [Compound 51] | > 2000 |
| CC(=O)N[C@H](C(=O)N1CCC[C@H]1C(=O)NC1CC=CCC[C@@H](C(=O)N[C@@H](CC(=O)O)C(=O)N[C@@H](C)C(=O)N[C@@H](CC(=O)O)C(=O)N[C@@H](CCCCNC(=S)Nc2ccc3c(c2)C(=O)OC32c3ccc(O)cc3Oc3cc(O)ccc32)C(N)=O)NC(=O)[C@H](Cc2ccccc2)NC(=O)[C@H](CCC(N)=O)NC1=O)C(C)C (stereo partly shown) [Compound 18] | 352 ± 49 |
| CC(C)[C@H](NC(=O)COCCOCCNC(=S)Nc1ccc2c(c1)C(=O)OC21c2ccc(O)cc2Oc2cc(O)ccc21)C(=O)N1CCC[C@H]1C(=O)NCC(=O)N[C@@H](CCC(N)=O)C(=O)N[C@@H](Cc1ccccc1)C(=O)N[C@@H](CC(=O)O)C(=O)N[C@@H](CC(=O)O)C(=O)N[C@@H](C)C(=O)N[C@@H](CC(=O)O)C(N)=O [Compound 28] (HELM PEPTIDE1{[O=C1OC2(c3ccc(O)cc3Oc3cc(O)ccc32)c2ccc(NC(=S)[*:2])cc21].[O=C(COCCOCCN[*:1])[*:2]].V.P.G.Q.F.D.D.A.D.[am]}$$$$V2.0) | 905 ± 104 |
| CC(=O)N[C@H](C(=O)N1CCC[C@H]1C(=O)NCC(=O)N[C@@H](CCC(N)=O)C(=O)N[C@@H](Cc1ccccc1)C(=O)N[C@@H](CC(=O)O)C(=O)N[C@@H](CC(=O)O)C(=O)N[C@@H](C)C(=O)N[C@@H](CC(=O)O)C(=O)N[C@@H](CCCCNC(=S)Nc1ccc2c(c1)C(=O)OC21c2ccc(O)cc2Oc2cc(O)ccc21)C(N)=O)C(C)C [Compound 29] (Ac-VPGQFDDADK(FITC)-NH2) | 670 ± 187 |
| CC(=O)N[C@H](C(=O)N1CCC[C@H]1C(=O)NCC(=O)N[C@@H](CCC(N)=O)C(=O)N[C@@H](Cc1ccccc1)C(=O)N[C@@H](CC(=O)O)C(=O)N[C@@H](CC(=O)O)C(=O)N[C@@H](C)C(=O)N(C)[C@@H](CC(=O)O)C(=O)N[C@@H](CCCCNC(=S)Nc1ccc2c(c1)C(=O)OC21c2ccc(O)cc2Oc2cc(O)ccc21)C(N)=O)C(C)C [Compound 44] (Ac-VPGQFDDA[NMeD]K(FITC)-NH2) | 600 ± 100 |

Same assay, conditions: supplementary CSV, read-out: PRMT5-MEP50 Kd

| SMILES | Kd [nM] |
| --- | --- |
| CC(=O)N[C@H](C(=O)N1CCC[C@H]1C(=O)NC1CCC=CCC[C@@H](C(=O)N[C@@H](CC(=O)O)C(=O)N[C@@H](C)C(=O)N[C@@H](CC(=O)O)C(=O)N[C@@H](CCCCNC(=S)Nc2ccc3c(c2)C(=O)OC32c3ccc(O)cc3Oc3cc(O)ccc32)C(N)=O)NC(=O)[C@H](Cc2ccccc2)NC(=O)[C@H](CCC(N)=O)NC1=O)C(C)C (stereo in doubt) [Compound 20] | > 2000 |
| CC(=O)N1CCC[C@H]1C(=O)N[C@H](C(=O)NC1CCCCC[C@@H](C(=O)N[C@@H](Cc2ccc([N+](=O)[O-])cc2)C(=O)N[C@@H](CC(C(=O)O)C(=O)O)C(=O)N[C@@H](CCC(N)=O)C(=O)N[C@@H](CCCCNC(=S)Nc2ccc3c(c2)C(=O)OC32c3ccc(O)cc3Oc3cc(O)ccc32)C(N)=O)NC(=O)[C@H](CC(=O)O)NC(=O)[C@H](C)NC1=O)C(C)C (stereo in doubt) [Compound 52] | > 2000 |
| CC(C)[C@H](NC(=O)[C@H](CCCNC(=N)N)NC(=O)[C@H](CO)NC(=O)COCCOCCNC(=S)Nc1ccc2c(c1)C(=O)OC21c2ccc(O)cc2Oc2cc(O)ccc21)C(=O)N[C@H](C(=O)N1CCC[C@H]1C(=O)N[C@@H]1CNC(=O)C[C@H](C(=O)N[C@@H](CC(=O)O)C(=O)N[C@@H](C)C(=O)N[C@@H](CC(=O)O)C(N)=O)NC(=O)[C@H](Cc2ccccc2)NC(=O)[C@H](CCC(N)=O)NC1=O)C(C)C [Compound 9] | > 2000 |
| CC(C)[C@H](NC(=O)[C@H](CCCNC(=N)N)NC(=O)[C@H](CO)NC(=O)COCCOCCNC(=S)Nc1ccc2c(c1)C(=O)OC21c2ccc(O)cc2Oc2cc(O)ccc21)C(=O)N[C@H](C(=O)N1CCC[C@H]1C(=O)N[C@@H]1CNC(=O)CC[C@H](C(=O)N[C@@H](CC(=O)O)C(=O)N[C@@H](C)C(=O)N[C@@H](CC(=O)O)C(N)=O)NC(=O)[C@H](Cc2ccccc2)NC(=O)[C@H](CCC(N)=O)NC1=O)C(C)C [Compound 10] | > 2000 |
| CC(C)[C@H](NC(=O)[C@H](CCCNC(=N)N)NC(=O)[C@H](CO)NC(=O)COCCOCCNC(=S)Nc1ccc2c(c1)C(=O)OC21c2ccc(O)cc2Oc2cc(O)ccc21)C(=O)N[C@H](C(=O)N1CCC[C@H]1C(=O)N[C@@H]1CCNC(=O)C[C@H](C(=O)N[C@@H](CC(=O)O)C(=O)N[C@@H](C)C(=O)N[C@@H](CC(=O)O)C(N)=O)NC(=O)[C@H](Cc2ccccc2)NC(=O)[C@H](CCC(N)=O)NC1=O)C(C)C [Compound 11] | > 2000 |
| CC(C)[C@H](NC(=O)[C@H](CCCNC(=N)N)NC(=O)[C@H](CO)NC(=O)COCCOCCNC(=S)Nc1ccc2c(c1)C(=O)OC21c2ccc(O)cc2Oc2cc(O)ccc21)C(=O)N[C@H](C(=O)N1CCC[C@H]1C(=O)N[C@@H]1CCNC(=O)CC[C@H](C(=O)N[C@@H](CC(=O)O)C(=O)N[C@@H](C)C(=O)N[C@@H](CC(=O)O)C(N)=O)NC(=O)[C@H](Cc2ccccc2)NC(=O)[C@H](CCC(N)=O)NC1=O)C(C)C [Compound 12] | > 2000 |
| CC(C)[C@H](NC(=O)[C@H](CCCNC(=N)N)NC(=O)[C@H](CO)NC(=O)COCCOCCNC(=S)Nc1ccc2c(c1)C(=O)OC21c2ccc(O)cc2Oc2cc(O)ccc21)C(=O)N[C@H](C(=O)N1CCC[C@H]1C(=O)N[C@@H]1CCCC[C@H](C(=O)N[C@@H](CC(=O)O)C(=O)N[C@@H](C)C(=O)N[C@@H](CC(=O)O)C(N)=O)NC(=O)[C@H](Cc2ccccc2)NC(=O)[C@H](CCC(N)=O)NC1=O)C(C)C [Compound 16] | > 2000 |
| CC(=O)N[C@H](C(=O)N1CCC[C@H]1C(=O)N[C@@H]1CC=CCC[C@H](C(=O)N[C@@H](CC(=O)O)C(=O)N[C@@H](C)C(=O)N[C@@H](CC(=O)O)C(=O)N[C@@H](CCCCNC(=S)Nc2ccc3c(c2)C(=O)OC32c3ccc(O)cc3Oc3cc(O)ccc32)C(N)=O)NC(=O)[C@H](Cc2ccccc2)NC(=O)[C@H](CCC(N)=O)NC1=O)C(C)C [Compound 23] | > 2000 |
| CC(=O)N[C@H](C(=O)N1CCC[C@H]1C(=O)N[C@@H]1CCC=CC[C@H](C(=O)N[C@@H](CC(=O)O)C(=O)N[C@@H](C)C(=O)N[C@@H](CC(=O)O)C(=O)N[C@@H](CCCCNC(=S)Nc2ccc3c(c2)C(=O)OC32c3ccc(O)cc3Oc3cc(O)ccc32)C(N)=O)NC(=O)[C@H](Cc2ccccc2)NC(=O)[C@H](CCC(N)=O)NC1=O)C(C)C [Compound 24] (Ac-VP[dNva(5-ylidene)]QF[dAllylGly]DADK(FITC)-NH2; staple 3-6) | > 2000 |
| CC(=O)N[C@H](C(=O)N1CCC[C@H]1C(=O)N[C@@H]1CCCCC[C@H](C(=O)N[C@@H](CC(=O)O)C(=O)N[C@@H](C)C(=O)N[C@@H](CC(=O)O)C(=O)N[C@@H](CCCCNC(=S)Nc2ccc3c(c2)C(=O)OC32c3ccc(O)cc3Oc3cc(O)ccc32)C(N)=O)NC(=O)[C@H](Cc2ccccc2)NC(=O)[C@H](CCC(N)=O)NC1=O)C(C)C [Compound 26] | > 2000 |
| CC(=O)N[C@H](C(=O)N1CCC[C@H]1C(=O)N[C@@H]1CCCCCC[C@H](C(=O)N[C@@H](CC(=O)O)C(=O)N[C@@H](C)C(=O)N[C@@H](CC(=O)O)C(=O)N[C@@H](CCCCNC(=S)Nc2ccc3c(c2)C(=O)OC32c3ccc(O)cc3Oc3cc(O)ccc32)C(N)=O)NC(=O)[C@H](Cc2ccccc2)NC(=O)[C@H](CCC(N)=O)NC1=O)C(C)C [Compound 27] | > 2000 |
| CC(=O)N[C@H](C(=O)N1CCC[C@H]1C(=O)NCC(=O)N[C@@H](CCC(N)=O)C(=O)N[C@@H](Cc1ccccc1)C(=O)N[C@@H](CC(=O)O)C(=O)N[C@@H](CC(=O)O)C(=O)N[C@@H](C)C(=O)N[C@@H](CCC(=O)O)C(=O)N[C@@H](CCCCNC(=S)Nc1ccc2c(c1)C(=O)OC21c2ccc(O)cc2Oc2cc(O)ccc21)C(N)=O)C(C)C [Compound 33] (Ac-VPGQFDDAEK(FITC)-NH2) | 531 ± 23 |
| CC(=O)N[C@H](C(=O)N1CCC[C@H]1C(=O)NCC(=O)N[C@@H](CCC(N)=O)C(=O)N[C@@H](Cc1ccccc1)C(=O)N[C@@H](CC(=O)O)C(=O)N[C@@H](CC(=O)O)C(=O)N[C@@H](C)C(=O)N(C)[C@@H](CC(=O)O)C(=O)N[C@@H](CCCCNC(=S)Nc1ccc2c(c1)C(=O)OC21c2ccc(O)cc2Oc2cc(O)ccc21)C(N)=O)C(C)C [Compound 44] (Ac-VPGQFDDA[NMeD]K(FITC)-NH2) | 587 ± 142 |
| CC(=O)N[C@H](C(=O)N1CCC[C@H]1C(=O)NCC(=O)N[C@@H](CCC(N)=O)C(=O)N[C@@H](Cc1ccccc1)C(=O)N[C@@H](CC(=O)O)C(=O)N[C@@H](CC(=O)O)C(=O)N(C)[C@@H](C)C(=O)N[C@@H](CC(=O)O)C(=O)N[C@@H](CCCCNC(=S)Nc1ccc2c(c1)C(=O)OC21c2ccc(O)cc2Oc2cc(O)ccc21)C(N)=O)C(C)C [Compound 45, Ac-VPGQFDD-(N-Me)A-DK(Fitc)-NH2] (Ac-VPGQFDD[NMeA]DK(FITC)-NH2) | > 2000 |
| CC(=O)N[C@H](C(=O)N1CCC[C@H]1C(=O)NCC(=O)N[C@@H](CCC(N)=O)C(=O)N[C@@H](Cc1ccccc1)C(=O)N[C@@H](CC(=O)O)C(=O)N(C)[C@@H](CC(=O)O)C(=O)N[C@@H](C)C(=O)N[C@@H](CC(=O)O)C(=O)N[C@@H](CCCCNC(=S)Nc1ccc2c(c1)C(=O)OC21c2ccc(O)cc2Oc2cc(O)ccc21)C(N)=O)C(C)C [Compound 46, Ac-VPGQFD-(N-Me)D-ADK(Fitc)-NH2] (Ac-VPGQFD[NMeD]ADK(FITC)-NH2) | > 2000 |
| CC(=O)N[C@H](C(=O)N1CCC[C@H]1C(=O)NCC(=O)N[C@@H](CCC(N)=O)C(=O)N(C)[C@@H](Cc1ccccc1)C(=O)N[C@@H](CC(=O)O)C(=O)N[C@@H](CC(=O)O)C(=O)N[C@@H](C)C(=O)N[C@@H](CC(=O)O)C(=O)N[C@@H](CCCCNC(=S)Nc1ccc2c(c1)C(=O)OC21c2ccc(O)cc2Oc2cc(O)ccc21)C(N)=O)C(C)C [Compound 47, Ac-VPGQ-(N-Me)F-DDADK(Fitc)-NH2] (Ac-VPGQ[NMeF]DDADK(FITC)-NH2) | > 2000 |
